Reference: paper PMC11945486, “TAS1R2/TAS1R3 Single-Nucleotide Polymorphisms Affect Sweet Taste Receptor Activation by Sweeteners: The SWEET Project” (Nutrients, 2025)
No end group written: not given here.

T1: human TAS1R2-K689Q/TAS1R3-WT (Homo sapiens, UniProt Q7RTX0+Q8TE23, K689Q)
T1 construct: expressed in transfected cells; host or cells: HEK293T-Gα16gust44
T1 sequence (Q8TE23 20-839 K689Q): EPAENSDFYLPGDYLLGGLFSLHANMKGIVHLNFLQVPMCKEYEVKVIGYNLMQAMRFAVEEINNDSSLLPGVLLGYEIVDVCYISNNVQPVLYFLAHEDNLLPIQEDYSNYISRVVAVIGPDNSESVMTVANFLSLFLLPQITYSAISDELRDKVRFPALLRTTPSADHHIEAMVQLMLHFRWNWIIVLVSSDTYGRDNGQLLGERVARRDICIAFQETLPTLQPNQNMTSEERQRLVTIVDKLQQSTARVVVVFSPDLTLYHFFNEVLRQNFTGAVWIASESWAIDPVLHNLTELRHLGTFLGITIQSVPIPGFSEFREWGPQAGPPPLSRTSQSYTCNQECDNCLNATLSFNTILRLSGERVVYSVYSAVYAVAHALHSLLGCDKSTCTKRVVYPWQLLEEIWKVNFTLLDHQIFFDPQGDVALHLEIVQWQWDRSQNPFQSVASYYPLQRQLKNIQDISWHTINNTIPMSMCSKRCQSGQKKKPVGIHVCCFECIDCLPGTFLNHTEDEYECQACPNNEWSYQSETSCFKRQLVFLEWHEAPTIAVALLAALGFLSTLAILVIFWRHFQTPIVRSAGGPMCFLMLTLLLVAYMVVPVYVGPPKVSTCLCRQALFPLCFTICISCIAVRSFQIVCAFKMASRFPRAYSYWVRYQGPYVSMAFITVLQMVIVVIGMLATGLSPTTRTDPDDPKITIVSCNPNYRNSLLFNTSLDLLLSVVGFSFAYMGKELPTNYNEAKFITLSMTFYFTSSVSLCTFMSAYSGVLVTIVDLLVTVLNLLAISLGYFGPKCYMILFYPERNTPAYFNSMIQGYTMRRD
T1 sequence (Q7RTX0 21-852): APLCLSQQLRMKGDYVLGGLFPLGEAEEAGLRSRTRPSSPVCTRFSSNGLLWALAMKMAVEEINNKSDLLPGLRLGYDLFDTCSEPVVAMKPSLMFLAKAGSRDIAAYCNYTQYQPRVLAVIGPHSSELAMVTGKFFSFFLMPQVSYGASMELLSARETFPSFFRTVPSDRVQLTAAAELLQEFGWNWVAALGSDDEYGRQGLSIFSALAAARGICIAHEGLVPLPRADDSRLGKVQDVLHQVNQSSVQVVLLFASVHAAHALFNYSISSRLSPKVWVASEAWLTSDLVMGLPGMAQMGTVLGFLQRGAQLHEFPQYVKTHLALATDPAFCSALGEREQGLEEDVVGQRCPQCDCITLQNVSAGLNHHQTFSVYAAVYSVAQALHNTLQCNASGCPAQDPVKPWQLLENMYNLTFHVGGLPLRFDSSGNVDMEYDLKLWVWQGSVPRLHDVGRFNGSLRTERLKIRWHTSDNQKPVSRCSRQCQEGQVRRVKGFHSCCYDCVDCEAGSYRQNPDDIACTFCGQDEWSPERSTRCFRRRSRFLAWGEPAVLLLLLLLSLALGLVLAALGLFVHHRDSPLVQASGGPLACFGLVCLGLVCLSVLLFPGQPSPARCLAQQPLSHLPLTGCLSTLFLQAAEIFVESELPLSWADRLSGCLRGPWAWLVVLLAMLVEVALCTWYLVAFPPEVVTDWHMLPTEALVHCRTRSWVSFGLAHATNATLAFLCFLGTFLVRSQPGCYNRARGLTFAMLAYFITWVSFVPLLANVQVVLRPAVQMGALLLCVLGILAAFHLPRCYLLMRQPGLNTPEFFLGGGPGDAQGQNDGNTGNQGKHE

B1: thaumatin (protein)
chain: ATFEIVNRCSYTVWAAASKGDAALDAGGRQLNSGESWTINVEPGTKGGKIWARTDCYFDDSGSGICKTGDCGGLLRCKRFGRPPTTLAEFSLNQYGKDYIDISNIKGFNVPMDFSPTTRGCRGVRCAADIVGQCPAKLKAPGGGCNDACTVFQTSEYCCTTGKCGPTEYSRFFKRLCPDAFSYVLDKPTTVTCPGSSNYRVTFCPTA
modifications: Eight disulfides
notes: sweet-tasting plant protein, E957

Molecular target: T1, human TAS1R2-K689Q/TAS1R3-WT
Test: Calcium mobilisation assay, TAS1R2 variant K689Q with TAS1R3-WT
Type: cell-based
Conditions: "-": no activation; for Max ΔF/F0: maximal signal amplitude; for EC50: "nd": not determined
Text: The coding sequences for TAS1R2 and TAS1R3 were commercially synthesised, and the human codon was optimised for expression in human cells. The coding sequences of human TAS1R2 and TAS1R3 were subcloned and inserted into the mammalian expression vectors pcDNA6/myc-HisA and pcDNA4/myc-HisA (Invitrogen; Thermo Fisher Scientific; Illkirch, France) between the EcoRI and NotI restriction sites, generating the plasmids pcDNA6-TAS1R2 and pcDNA4-TAS1R3, respectively. To increase protein expression in mammalian cells, an upstream start codon was used, which was a sequence called MAX, corresponding to the QBI SP163 element also described in pcDNA4-HisMax (Invitrogen; Thermo Fisher Scientific; Illkirch, France). To measure the expression level of the receptor by immunohistochemistry, we used the FLAG sequence ([…]) in the C-terminal position, which encodes the FLAG tag epitope. SNP variants of TAS1R2 and TAS1R3 were constructed based on […], respectively, using site-directed mutagenesis (Genewiz; Leipzig, Germany).
The HEK293T cells were kindly provided by Jay P. Slack (Givaudan Flavors Corporation; Cincinnati, OH, USA). HEK293T cells stably transfected with Gα16gust44 [43, 67] were seeded in poly-D-lysine-coated clear-bottom black 96-well plates (0.35 × 10^5 cells/well) in high-glucose DMEM supplemented with 2 mM GlutaMAX, 10% dialysed foetal bovine serum with penicillin/streptomycin and G418 (400 μg/mL) at 37 °C and 6.3% CO2 in a humidified atmosphere as previously reported. […] As a negative control, HEK293T cells were mock-transfected with the empty expression vector. After a further 24 h of incubation, the HEK293T cells were washed with C1 buffer (130 mM NaCl, 5 mM KCl, 10 mM HEPES pH 7.4 and 2 mM CaCl2). The 96-well plates containing the cells were then stimulated with sweet-tasting compounds. […] Different concentration ranges were tested depending on the sweet compound injected. The Ca^2+ changes were expressed as fractional changes in fluorescent light intensity: ΔF/F = (F − F0)/F0, where F was the fluorescent light intensity at each point, and F0 was the value of emitted fluorescent light prior to stimulus application. To calculate dose–response relationships, the changes in fluorescence upon stimulus application were averaged, mock-subtracted and baseline-corrected. The dose–response data obtained were adjusted using a 4-parameter logistic equation. The half-maximal effective concentrations (EC50 values) and maximal signal amplitudes were calculated using SigmaPlot software (version 15.0) (Systat Software; San Jose, CA, USA).
For in vitro calcium mobilisation assay performed on hTAS1R2-SNPs, hTAS1R3-SNPs and mTAS1R3-I60T, 6 to 7 concentrations were tested for each sweet compound, plus buffer alone. All concentration–receptor combinations were measured in duplicate, and each experiment was repeated at least 4 times (8 wells/concentration). Results were expressed for each concentration as ΔF/F mean ± SEM and represented as dose–response curves.

Molecule | R1 = Variant EC50/WT EC50 | Max ΔF/F0 | EC50 [µM]
CC1=CC(=O)NS(=O)(=O)O1 [Acesulfame K, acesulfame K] | 4.3 | 0.02 | 
O=S(=O)(O)NC1CCCCC1 [Cyclamate, cyclamate] |  |  | 5010 ± 220
C[C@H](CC[C@@H](O[C@@H]1O[C@H](CO[C@@H]2O[C@H](CO)[C@@H](O)[C@H](O)[C@H]2O)[C@@H](O)[C@H](O)[C@H]1O[C@@H]1O[C@H](CO)[C@@H](O)[C@H](O)[C@H]1O)C(C)(C)O)[C@H]1CC[C@@]2(C)[C@@H]3CC=C4[C@@H](CC[C@H](O[C@@H]5O[C@H](CO[C@@H]6O[C@H](CO)[C@@H](O)[C@H](O)[C@H]6O)[C@@H](O)[C@H](O)[C@H]5O)C4(C)C)[C@]3(C)[C@H](O)C[C@]12C [Mogroside V, mogroside V] | 3.3 | 0.54 ± 0.01 | 57.9 ± 0.4
COc1ccc(CCC(=O)c2c(O)cc(O[C@@H]3O[C@H](CO)[C@@H](O)[C@H](O)[C@H]3O[C@@H]3O[C@@H](C)[C@H](O)[C@@H](O)[C@H]3O)cc2O)cc1O [NHDC, neohesperidin dihydrochalcone] |  |  | > 1000
COC(=O)[C@H](Cc1ccccc1)NC(=O)[C@H](CC(=O)O)NCCC(C)(C)C [Neotame] | 4.3 | 0.12 ± 0.01 | 3.58 ± 0.46
C=C(C)[C@@H]1CC=C(/C=N/O)CC1 [Perillartine, perillartine] | 7.6 | 1.36 ± 0.01 | 132 ± 16.9
C=C1C[C@@]23CC[C@H]4[C@@](C)(CCC[C@@]4(C)C(=O)O[C@@H]4O[C@H](CO)[C@@H](O)[C@H](O[C@@H]5O[C@H](CO)[C@@H](O)[C@H](O)[C@H]5O)[C@H]4O[C@@H]4O[C@H](CO)[C@@H](O)[C@H](O)[C@H]4O)[C@@H]2CC[C@]1(O[C@@H]1O[C@H](CO)[C@@H](O)[C@H](O[C@@H]2O[C@H](CO)[C@@H](O)[C@H](O)[C@H]2O)[C@H]1O[C@@H]1O[C@H](CO)[C@@H](O)[C@H](O)[C@H]1O)C3 [Rebaudioside M, rebaudioside M] | 4.5 | 0.36 ± 0.01 | 75.8 ± 2.3
OC[C@H]1O[C@H](O[C@]2(CCl)O[C@H](CCl)[C@@H](O)[C@@H]2O)[C@H](O)[C@@H](O)[C@H]1Cl [Sucralose] | 3.4 | 0.08 ± 0.01 | 307
brazzein (QDKCKKVYENYPVSKCQLANQCNYDCKLDKHARSGECFYDEKRNLQCICDYCEY; ends and bridges not checked; cysteine pairing not given here; UniProt P56552 1-54, looked up) [sweet-tasting protein obtained by recombinant production using the yeast Pichia pastoris] | 5.7 | 0.64 ± 0.03 | 
thaumatin | 4.4 | 0.87 ± 0.09 | 
B1 |  |  | 33.5
